Test results as given in paper PMC9704087, “Solid lipid nanoparticle as an effective drug delivery system of a novel curcumin derivative: formulation, release in vitro and pharmacokinetics in vivo” (Pharmaceutical Biology, 2022).

Experiments:
[1] = Pharmacokinetic study after intravenous injection; type: in vivo; details: male, Sprague Dawley, rat, SD rats, 5 mg/kg intravenous, plasma, n = 5
Procedure: Sprague Dawley (SD) male rats aged 8 weeks weighing 250–300 g were provided by the Laboratory Animal Center of Southwest Medical University and were placed in a pathogen-free environment, and had free access to food and water. Studies involving animals were approved (approval number: SCXK (Chuan) 2013-17) by the Ethics Committee of Southwest Medical University.
Rats that were used for the pharmacokinetic study were fasted for more than 12 h before use and had free access to water. Rats were randomly divided into two groups (n = 5), namely, the Cur group and CUD-SLN group, Rats in both groups were injected intravenously with 5 mg/kg of corresponding drugs. Approximately, 200 µL of blood was collected using a heparin-coated syringe at 2, 5, 15 and 30 min and at 1, 2, 4, 6, 8, 12, 24, 30, 36, 48, 54, 60, 72 and 84 h after injection. Blood was centrifuged for 10 min at 3000 rpm, and plasma was obtained. Furthermore, 50 µL of acetate buffer (pH 3.5) was added to 100 μL of plasma. After vortexing for 1 min, 0.5 mL of extract solvent (methanol–ethyl acetate 10:90, v/v) was added to the mixture, the mixture was vortexed again for 3 min, followed by centrifugation for 3 min at 8000 rpm. Then, 0.5 mL of supernatant was removed and evaporated with nitrogen flow. Next, 200 μL of reconstituted solvent (acetonitrile contains 0.1% phosphoric acid) was added to the dry residue, vortexed for 4 min, sonicated for 4 min, and centrifuged for 10 min at 10,000 rpm, A total of 50 μL of the supernatant was removed for the high-performance liquid chromatography (HPLC) (1260 Infinity II, Agilent Technologies, Santa Clara, CA) and calculated with the standard curve (Cur: A = 157.21 C + 0.148, R^2=0.9991, range: (0.02, 12) μg/mL; CUD: A = 18.159 C + 0.4884, R^2=0.9998, range: (0.02, 5) μg/mL; A = 46.552 C – 179.81, R^2=0.9997, range: (5, 160) μg/mL). […] The detection wavelength was 409 nm (Guo et al. [2020]).
(§1) Evaluation of the comprehensive design experiment was performed by SPSS 17.0 software (SPSS Inc., Chicago, IL). Fitting of the release curve was performed by Origin 8.0 software. Pharmacokinetic data were processed by DAS 2.1.1 software to obtain relevant pharmacokinetic parameters. Student’s t-test for two groups and one-way ANOVA for multiple groups were employed for the data analysed. p < 0.05 was considered statistically significant.

[2] = In vitro drug release, dialysis membrane diffusion technique; type: physicochemical
Procedure: The release of CUD-SLN and free CUD in vitro was studied using a dialysis membrane diffusion technique (MWCO 8000–14,000) (He et al. [2020]). Due to the low solubility of CUD in the buffer, Tween 80 was added to satisfy the leaking conditions. A total of 500 mL of PBS buffer with 10% w/v Tween 80 (pH 7.35) was used as a release medium. Next, 2 mL of freshly prepared CUD-SLN (1 mg/mL) was transferred to the dialysis bags, and 2 mg free CUD (suspended in 2 mL 0.5% w/v CMC-Na) was transferred to dialysis bags as a control. The test bags were immersed in a release medium at 37 ± 0.5 °C and stirred at 100 rpm using a dissolution apparatus (ZRS-8G, Intelligent dissolution tester, ZRS-8G, Tianjin, China). An aliquot of the sample (1 mL) was removed from the release medium at 15 and 30 min and 1, 2, 4, 6, 8, 12, 24 and 48 h. After each sampling, the blank dissolution medium was replenished with the same temperature and volume. Removed samples were filtered through a 0.22 μm filter, the CUD content was analysed by a UV–vis spectrophotometer, and the analytical method described before. The in vitro release data of the drug were fitted with the zero-order release equation, the first-order release equation and the Higuchi equation (Ma et al. [2019]).
as §1

Row | AUC(0-inf) [1] [ng·h/mL] | AUC(0-t) [1] [ng·h/mL] | Cmax [1] [ng/mL] | Tmax [1] [h] | clearance ([1]; read-out: CLz (clearance) (converted)) [mL/min/kg] | MRT last ([1]; read-out: MRT0–t) [h] | MRT inf ([1]; read-out: MRT0–∞) [h] | half-life ([1]; read-out: t1/2z (half-life) (converted)) [h] | Compound | cumulative release of CUD at 48 h ([2]; PBS with 10% w/v Tween 80, pH 7.35, 37 °C, 100 rpm, n = 6) [%] | First-order equation k1 ([2]; fit of in vitro release data) | Higuchi's equation kh ([2]; fit of in vitro release data) | Zero order equation k0 ([2]; fit of in vitro release data)
1 | 4880 | 4600 | 332 | 6 | 171 | 9.53 | 10.8 | 5.6 | COc1cc(/C=C/C(=O)CC(=O)/C=C/c2ccc(O)c(OC)c2)ccc1O [Cur, Curcumin] | – | – | – | –
2 | – | – | – | – | – | – | – | – | Carbonic acid 17-(1,5-dimethyl-hexyl)-10,13-dimethyl-2,3,4,7,8,9,10,11,12,13,14,15,16,17-tetradecahydro-1H-cyclopenta[a]phenanthren-3-yl ester 4-[7-(4-hydroxy-3-methoxy-phenyl)-3,5-dioxo-hepta-1,6-dienyl]-2-methoxy-phenyl ester [CUD] | 60.24 ± 5.08 | 0.2258 | 8.6574 | 1.0410
